# In publication PMC6514705, “QuinoxalineTacrine QT78, a Cholinesterase Inhibitor as a Potential Ligand for Alzheimer’s Disease Therapy” (Molecules, 2019):
# Tests used:
# [1] = target: T1, human recombinant AChE (Homo sapiens, UniProt P22303); experiment: Inhibition of human AChE (Ellman's assay); type: biochemical; conditions: 20 min preincubation at 37 °C, pH 8.0, read-out: IC50 (hAChE)
# T1 construct: purchased Sigma-Aldrich, Milan, Italy
# Method: (§1) Next, the in vitro inhibition of human acetylcholinesterase (hAChE) and human butyrylcholinesterase (hBuChE) was assessed according to the method of Ellman
# (§2) The ability of QT78 to inhibit human ChE activity was assessed using Ellman’s assay. A Jasco V-530 double beam spectrophotometer connected to a HAAKE DC30 thermostating system (Thermo Haake, Vreden, Germany) was used. […] Either 50 µL of a solution of the tested compound at increasing concentrations or 50 µL of solvent (methanol or water) were added to the assay solution and preincubated at 37 °C with the enzyme for 20 min before the addition of substrate. […] In parallel, blanks containing all components except the enzyme were prepared to account for the non-enzymatic hydrolysis of the substrate. The reaction rates were compared and the percentage of inhibition due to the presence of test compound was calculated. Each concentration was analyzed in duplicate/triplicate. The percentage of inhibition of the enzyme activity due to the presence of inhibitor was calculated. Inhibition plots were obtained for each compound by plotting the percentage of inhibition versus the logarithm of inhibitor concentration in the assay solution. The linear regression parameters were determined for each curve and the IC50 extrapolated.
# [2] = target: T2, BuChE from human serum (Homo sapiens, UniProt P06276); experiment: Inhibition of human BuChE (Ellman's assay); type: biochemical; conditions: 20 min preincubation at 37 °C, pH 8.0, read-out: IC50 (hBuChE)
# T2 construct: BuChE from human serum (Sigma-Aldrich, Milan, Italy); purchased Sigma-Aldrich, Milan, Italy; host or cells: human serum
# Method: as §1, §2
# [3] = in vitro; type: cell-based; conditions: human
# Method: The human hepatoma HepG2 cell line was kindly provided by the IdiPAZ Institute for Health Research (Madrid, Spain). They were cultured in Eagle´s minimum essential medium (EMEM) supplemented with 15 nonessential amino acids, 1 mM sodium pyruvate, 10 % heat-inactivated FBS, 100 units/mL penicillin, and 100 µg/mL streptomycin (reagents from Invitrogen, Madrid, Spain). […] Culture media were changed every 2 days. […] For assays, cells were subcultured in 96-well plates at a seeding density of 1 × 10^5 cells per well.
# MTT reduction was performed as described for both HepG2 and SH-SY5Y human cell lines. Briefly, 50 µL of the MTT labeling reagent, at a final concentration of 0.5 mg/mL, was added. […] Colorimetric determination of MTT reduction was measured in an ELISA microplate reader at 540 nm. Non-treated cells were considered controls and were taken as 100% viability.
# [4] = system: SH-SY5Y cells; experiment: Neuroprotection in SH-SY5Y cells against rotenone/oligomycin A (R/O) toxicity (MTT); type: cell-based, human; conditions: 1 μM compound, compared with lower concentrations
# Method: (§3) Finally, following the protocols described in the Supporting Information, we evaluated the neuroprotective profile of QT78 against two toxic insults related to neurodegeneration, using melatonin (10 nM) as a reference compound: (a) a model of reactive oxygen species (ROS) generation, based on the cocktail of the mitochondrial respiratory chain blockers rotenone and oligomycin A (R/O), and (b) hyperphosphorylation of tau protein using okadaic acid (OA), a well-known protein phosphatase inhibitor.
# (§4) Human SH-SY5Y cells were maintained in a 1:1 mixture of Nutrient Mixture F-12 and Eagle´s minimum essential medium (EMEM) supplemented with 15 nonessential amino acids, 1 mM sodium pyruvate, 10% heat-inactivated FBS, 100 units/mL penicillin, and 100 μg/mL streptomycin. Cultures were seeded into flasks containing supplemented medium and maintained at 37 °C in a humidified atmosphere of 5% CO2 and 95% air. For assays, SH-SY5Y cells were sub-cultured in 96-well plates at a seeding density of 5 × 10^4 cells per well for 2 days. […]
# (§5) MTT reduction was performed as described for both HepG2 and SH-SY5Y human cell lines. […] Colorimetric determination of MTT reduction was measured in an ELISA microplate reader at 540 nm. […]
# [5] = system: SH-SY5Y cells; experiment: Neuroprotection in SH-SY5Y cells against okadaic acid (OA) toxicity (MTT); type: cell-based, human; conditions: 1 μM compound, compared with lower concentrations
# Method: as §3, §4, §5
# T2 sequence (P06276 29-602): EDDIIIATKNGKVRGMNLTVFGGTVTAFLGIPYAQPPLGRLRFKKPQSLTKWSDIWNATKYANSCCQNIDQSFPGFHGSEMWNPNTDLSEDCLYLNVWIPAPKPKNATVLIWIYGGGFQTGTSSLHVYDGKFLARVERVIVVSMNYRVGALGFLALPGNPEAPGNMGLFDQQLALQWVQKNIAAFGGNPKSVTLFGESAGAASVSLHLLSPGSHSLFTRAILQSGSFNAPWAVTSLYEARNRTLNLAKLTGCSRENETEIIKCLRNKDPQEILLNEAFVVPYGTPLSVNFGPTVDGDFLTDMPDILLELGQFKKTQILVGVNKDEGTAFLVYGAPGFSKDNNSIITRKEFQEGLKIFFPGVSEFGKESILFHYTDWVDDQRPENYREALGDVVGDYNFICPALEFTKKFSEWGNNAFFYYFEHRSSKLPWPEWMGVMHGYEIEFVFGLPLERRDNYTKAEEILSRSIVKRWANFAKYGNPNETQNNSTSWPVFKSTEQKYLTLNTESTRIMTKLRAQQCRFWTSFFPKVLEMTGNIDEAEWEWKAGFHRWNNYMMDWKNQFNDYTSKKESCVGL
# T1 sequence (P22303 32-614): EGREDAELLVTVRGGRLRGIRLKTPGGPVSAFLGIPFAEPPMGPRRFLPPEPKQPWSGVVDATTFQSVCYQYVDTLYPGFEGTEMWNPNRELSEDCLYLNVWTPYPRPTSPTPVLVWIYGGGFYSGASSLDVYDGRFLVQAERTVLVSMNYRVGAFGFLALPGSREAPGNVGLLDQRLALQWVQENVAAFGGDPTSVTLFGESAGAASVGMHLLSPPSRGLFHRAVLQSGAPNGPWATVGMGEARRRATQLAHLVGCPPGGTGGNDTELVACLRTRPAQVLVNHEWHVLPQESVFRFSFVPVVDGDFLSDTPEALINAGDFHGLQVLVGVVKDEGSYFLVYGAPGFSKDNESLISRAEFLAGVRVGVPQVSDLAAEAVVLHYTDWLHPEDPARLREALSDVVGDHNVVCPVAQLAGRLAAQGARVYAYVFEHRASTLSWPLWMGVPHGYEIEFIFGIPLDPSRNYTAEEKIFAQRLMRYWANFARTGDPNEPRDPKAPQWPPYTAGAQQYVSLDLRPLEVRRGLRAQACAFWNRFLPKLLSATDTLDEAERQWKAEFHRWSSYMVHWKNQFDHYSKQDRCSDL
compound,measurement,setting,value
"Nc1c2c(nc3nc4ccccc4nc13)CCCC2 [QT78, 1,2,3,4-tetrahydroquinolino[2,3-b]quinoxalin-12-amine]",IC50,[1],22 ± 1.3 µM
same,IC50,[2],6.79 ± 0.33 µM
same,"viability at 24 h, 1 µM",[3],96.7 ± 2.14%
same,"viability at 24 h, 3 µM",[3],97.6 ± 2.2%
same,"viability at 24 h, 10 µM",[3],97.1 ± 1.64%
same,"viability at 24 h, 30 µM",[3],95.1 ± 1.5%
same,"viability at 24 h, 100 µM",[3],90.5 ± 1.86%
same,"viability at 24 h, 300 µM",[3],78.1 ± 0.94%
same,"viability at 24 h, 1000 µM",[3],68.3 ± 2.92%
same,protective capacity against R/O,[4],the protective capacity decreased
same,protective capacity against OA,[5],the protective capacity decreased
